For assay [1], the target named is T1, pyruvate kinase M2 (PKM2) (Mus musculus, UniProt P52480).
T1 construct: gene Pkm; recombinant mouse PKM2 (pET-28a, E. coli)
The experiment in a line: ITC; LC/MS/MS peptide mapping of the adduct; CETSA and DARTS in lysates. It counts as binding. (In ITC the heat of successive injections is recorded.)

The target of another assay is T2, PKM2(C49S) (Mus musculus, UniProt P52480, C49S).
T2 construct: gene Pkm; recombinant mouse PKM2 C49S (pET-28a, E. coli)
The experiment in a line: ITC (much weaker than wild type). It is filed as binding.

pKd: −log10 of the molar value.

T2 sequence (P52480 whole entry C49S): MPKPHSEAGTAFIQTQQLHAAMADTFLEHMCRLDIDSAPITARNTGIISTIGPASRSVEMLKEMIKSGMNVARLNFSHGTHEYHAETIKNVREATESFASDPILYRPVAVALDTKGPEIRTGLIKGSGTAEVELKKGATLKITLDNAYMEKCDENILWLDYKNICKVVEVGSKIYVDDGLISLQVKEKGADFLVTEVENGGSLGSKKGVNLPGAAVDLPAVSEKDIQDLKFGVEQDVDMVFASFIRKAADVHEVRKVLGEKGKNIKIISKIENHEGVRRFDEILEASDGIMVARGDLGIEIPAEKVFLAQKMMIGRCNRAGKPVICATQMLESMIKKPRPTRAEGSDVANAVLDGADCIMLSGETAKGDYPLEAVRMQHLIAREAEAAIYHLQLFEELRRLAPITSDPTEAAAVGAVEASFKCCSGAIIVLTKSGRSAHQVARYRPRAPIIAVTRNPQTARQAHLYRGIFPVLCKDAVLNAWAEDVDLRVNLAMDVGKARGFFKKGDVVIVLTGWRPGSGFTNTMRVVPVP
T1 sequence (P52480 whole entry): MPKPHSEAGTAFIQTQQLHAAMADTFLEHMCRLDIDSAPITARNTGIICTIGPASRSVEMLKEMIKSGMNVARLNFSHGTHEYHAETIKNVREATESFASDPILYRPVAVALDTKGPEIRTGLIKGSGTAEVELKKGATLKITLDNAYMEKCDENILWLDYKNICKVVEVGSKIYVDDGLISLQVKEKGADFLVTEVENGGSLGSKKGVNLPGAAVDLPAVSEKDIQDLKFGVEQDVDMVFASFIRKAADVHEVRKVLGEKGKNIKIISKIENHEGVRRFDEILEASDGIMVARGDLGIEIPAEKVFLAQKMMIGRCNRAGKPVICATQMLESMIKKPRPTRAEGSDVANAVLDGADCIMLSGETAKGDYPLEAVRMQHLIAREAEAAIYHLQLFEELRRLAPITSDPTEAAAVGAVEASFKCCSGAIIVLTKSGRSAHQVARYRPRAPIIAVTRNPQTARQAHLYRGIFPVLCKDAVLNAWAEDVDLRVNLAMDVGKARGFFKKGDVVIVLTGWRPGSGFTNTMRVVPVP

Broadly, the pKd is the negative decadic logarithm of the Kd, by convention in mol/L. In the case of `CCCCCC(=O)/C=C/[C@@H]1[C@@H](C/C=C\CCCC(=O)O)[C@@H](O)C[C@H]1O` [15-keto-PGF2α], the negative logarithm of the Kd (pKd) in assay [1] was 6.04; on PKM2(C49S) it was 4.42.
